By EC50 is commonly meant the concentration needed to bring the measured effect to its halfway point. A word on the Emax: it is the maximal effect, on the per cent scale that the assay sets.

Structures can show the parent of a compound that is named as a salt. Where two headings read alike, the source gives them in different places. Some results are limits rather than exact numbers.

From patent US20080132505A1 (Glaxo Group Limited, priority 2004, published 2008) come the findings set out here.

This assay has as its target human cannabinoid CB2 receptor (Homo sapiens, UniProt P34972). Description: Cannabinoid CB2 receptor agonist activity (yeast reporter assay, FDGlu fluorescence). The class given is cell-based. The note with it: for Emax: read-out: efficacy value (Emax relative to HU210) at the cloned human cannabinoid CB2 receptor. In a few lines: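 S. cerevisiae MMY23 expressing human CB2 with a Gpa1/Gαi3 chimeric G-protein, grown 24 h at 30 °C with agonist (1% DMSO) in selective media containing 10 mM 3-aminotriazole and FDGlu, pH 7.0. Fluorescein fluorescence (485/535 nm) fitted by four-parameter curve; Emax and EMR relative to HU210.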
Background: In a reporter assay the amount or activity of a reporter protein is the signal.

Where [1] appears, read: EC50 value at the cloned human cannabinoid CB2 receptor.
Setting [2] is: read-out: EC50 value at the cloned human cannabinoid CB2 receptor.

Chain of human cannabinoid CB2 receptor (P34972 whole entry): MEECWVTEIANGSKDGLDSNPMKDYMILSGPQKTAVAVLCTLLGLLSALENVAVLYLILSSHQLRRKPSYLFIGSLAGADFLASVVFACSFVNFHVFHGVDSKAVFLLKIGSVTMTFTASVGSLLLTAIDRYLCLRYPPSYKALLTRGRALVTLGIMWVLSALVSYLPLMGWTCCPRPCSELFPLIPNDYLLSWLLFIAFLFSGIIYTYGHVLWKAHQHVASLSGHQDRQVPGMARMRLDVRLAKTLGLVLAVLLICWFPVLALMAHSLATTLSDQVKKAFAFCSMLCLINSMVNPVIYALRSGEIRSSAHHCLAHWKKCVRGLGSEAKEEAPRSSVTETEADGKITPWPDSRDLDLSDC

Regarding `O=C(NCC1CCCC1)c1cnc(Nc2cc(Cl)ccc2Cl)nc1C(F)(F)F` [Example 42, 2-(2,5-Dichlorophenylamino)-4-trifluoromethylpyrimidine-5-carboxylic acid cyclopentylmethyl-amide], the Emax is greater than 50%. This molecule displayed an EC50 under setting [1] of 20 to 300 nM.

`O=C(NCc1ccc(Cl)cc1)c1cnc(Nc2cccc(Cl)c2)nc1C(F)(F)F` [Example 298, 2-(3-Chloro-phenylamino)-4-trifluoromethyl-pyrimidine-5-carboxylic acid 4-chloro-benzylamide]: the Emax was greater than 50%. The EC50 under setting [1] fell in the range of 300 to 1000 nM. For `Cc1c(Cl)cccc1Nc1ncc(C(=O)NCC2CCCCC2)c(C(F)(F)F)n1` [Example 93, 2-(3-Chloro-2-methyl-phenylamino)-4-trifluoromethyl-pyrimidine-5-carboxylic acid cyclohexylmethyl-amide] the same measures were greater than 50% and 300 to 1000 nM. Take `N#Cc1cccc(Nc2ncc(C(=O)NCC3CCOCC3)c(C(F)(F)F)n2)c1` [Example 172, 2-(3-Cyanophenylamino)-4-trifluoromethyl-pyrimidine-5-carboxylic acid (tetrahydropyran-4-ylmethyl)-amide]: the Emax is greater than 50%. In addition, the EC50 under setting [1] is 20 to 300 nM. As for `O=C(NC1CCC1)c1cnc(Nc2cccc(Br)c2)nc1C(F)(F)F` [Example 47, 2-(3-Bromophenylamino)-4-trifluoromethylpyrimidine-5-carboxylic acid cyclobutylamide], under setting [2], the EC50 lay within 20 to 300 nM. Consider `N#Cc1ccc(Nc2ncc(C(=O)NCC3CCC3)c(C(F)(F)F)n2)c(Cl)c1` [Example 103, 2-(2-Chloro-4-cyanophenylamino)-4-trifluoromethyl-pyrimidine-5-carboxylic acid cyclobutylmethyl-amide], for which the Emax is greater than 50%. Under setting [1], this molecule came in with an EC50 of 300 to 1000 nM. Take `O=C(NCC1CCCC1)c1cnc(Nc2cccc(Cl)c2F)nc1C(F)(F)F` [Example 248, 2-(3-Chloro-2-fluoro-phenylamino)-4-trifluoromethyl-pyrimidine-5-carboxylic acid cyclopentylmethyl-amide]: the Emax is greater than 50%. For the same molecule, under setting [1], the EC50 fell in the range of 20 to 300 nM. For `O=C(NC[C@H]1CCCO1)c1cnc(Nc2cccc(Br)c2)nc1C(F)(F)F` [Example 80, 2-(3-bromophenylamino)-4-trifluoromethyl-pyrimidine-5-carboxylic acid [R-1-(tetrahydrofuran-2-yl)methyl]-amide] the same measures were greater than 50% and 300 to 1000 nM. `O=C(NCc1ccc(F)cc1)c1cnc(Nc2cccc(Br)c2)nc1C(F)(F)F` [Example 289, 2-(3-Bromophenylamino)-4-trifluoromethylpyrimidine-5-carboxylic acid 4-fluorobenzyl-amide]: the EC50 under setting [2] is 20 to 300 nM. Take `O=C(NCC1CCOCC1)c1cnc(Nc2cccc(Br)c2)nc1C(F)(F)F` [Example 32, 2-(3-Bromophenylamino)-4-trifluoromethylpyrimidine-5-carboxylic acid (tetrahydropyran-4-ylmethyl)amide]: the Emax is greater than 50%. Under setting [1], this molecule returned an EC50 of 20 to 300 nM.

For `O=C(NCc1ccncc1)c1cnc(Nc2cccc(Cl)c2)nc1C(F)(F)F` [Example 267, 2-(3-Chlorophenylamino)-4-trifluoromethylpyrimidine-5-carboxylic acid (pyridin-4-ylmethyl)amide], the EC50 under setting [1] fell in the range of 20 to 300 nM.

For `O=C(NCC1CCOCC1)c1cnc(Nc2cc(F)cc(C(F)(F)F)c2)nc1C(F)(F)F` [Example 180, 2-(3-Fluoro-5-(trifluoromethyl)phenylamino)-4-trifluoromethyl-pyrimidine-5-carboxylic acid (tetrahydropyran-4-ylmethyl)-amide], the Emax was greater than 50%. Under setting [1], this molecule yielded an EC50 of 20 to 300 nM. `O=C(NCC1CCOCC1)c1cnc(Nc2ccc(C(F)(F)F)c(F)c2)nc1C(F)(F)F` [Example 218, 2-(4-Trifluoromethyl-3-fluoro-phenylamino)-4-trifluoromethyl-pyrimidine-5-carboxylic acid (tetrahydro-pyran-4-ylmethyl)-amide]: the Emax was greater than 50%. The molecule further gave an EC50 under setting [1] of 20 to 300 nM. For `O=C(NCC1CCOCC1)c1cnc(Nc2cccc(F)c2)nc1C(F)(F)F` [Example 31, 2-(3-Fluorophenylamino)-4-trifluoromethylpyrimidine-5-carboxylic acid (tetrahydropyran-4-ylmethyl)amide] the same measures were greater than 50% and 20 to 300 nM. For `O=C(NCC1CCOCC1)c1cnc(Nc2cc(C(F)(F)F)cc(C(F)(F)F)c2)nc1C(F)(F)F` [Example 178, 2-(3,5-Bis-trifluoromethylphenylamino)-4-trifluoromethyl-pyrimidine-5-carboxylic acid (tetrahydropyran-4-ylmethyl)-amide], the Emax is greater than 50%. Besides, the EC50 under setting [1] fell in the range of 20 to 300 nM.

Take `O=C(NCc1ccncc1)c1ccc(Nc2cccc(Cl)c2)nc1C(F)(F)F` [Example 457, 6-(3-Chloro-phenylamino)-N-(pyridin-4-ylmethyl)-2-trifluoromethyl-nicotinamide]: the Emax is greater than 50%.

With `O=C(NC1CCC1)c1cnc(Nc2ccc(Cl)c(Cl)c2)nc1C(F)(F)F` [Example 30, 2-(3,4-Dichloro-phenylamino)-4-trifluoromethyl-pyrimidine-5-carboxylic acid cyclobutylamide], the Emax is greater than 50%. In addition, the EC50 under setting [1] is 300 to 1000 nM.

For the molecule `O=C(NCC1CCCCC1)c1cnc(Nc2ccc(F)c(Cl)c2)nc1C(F)(F)F` [Example 166, 2-(3-Chloro-4-fluorophenylamino)-4-trifluoromethyl-pyrimidine-5-carboxylic acid cyclohexylmethyl-amide], the Emax was greater than 50%. Under setting [1], this molecule registered an EC50 of 20 to 300 nM. For `O=C(NCc1ccccc1)c1cnc(Nc2cccc(Cl)c2)nc1C(F)(F)F` [Example 266, 2-(3-Chlorophenylamino)-4-trifluoromethylpyrimidine-5-carboxylic acid benzyl-amide] the same measures were greater than 50% and 20 to 300 nM. For `CCN(Cc1ccccc1)C(=O)c1cnc(Nc2cccc(Cl)c2)nc1C(F)(F)F` [Example 299, 2-(3-Chloro-phenylamino)-4-trifluoromethyl-pyrimidine-5-carboxylic acid N-benzyl-N-ethyl-amide] the same measures were greater than 50% and 300 to 1000 nM. For `N#Cc1ccc(Nc2ncc(C(=O)NCC3CCC3)c(C(F)(F)F)n2)cc1Cl` [Example 197], the Emax is greater than 50%. Turning to `COc1cccc(Nc2ncc(C(=O)NCC3CCCCC3)c(C(F)(F)F)n2)c1` [Example 163, 2-(3-Methoxyphenylamino)-4-trifluoromethyl-pyrimidine-5-carboxylic acid cyclohexylmethyl-amide], under setting [2], the EC50 is 20 to 300 nM.

`N#Cc1ccc(Nc2ncc(C(=O)NCC3CCCCC3)c(C(F)(F)F)n2)c(Cl)c1` [Example 237, 2-(2-Chloro-4-cyano-phenylamino)-4-trifluoromethyl-pyrimidine-5-carboxylic acid cyclohexylmethyl-amide]: the Emax is greater than 50%. Also, under setting [1], the EC50 lay in the range of 20 to 300 nM.

Take `O=C(NCC1CCC1)c1cnc(Nc2cc(Cl)ccc2F)nc1C(F)(F)F` [Example 191, 2-(5-Chloro-2-fluorophenylamino)-4-trifluoromethyl-pyrimidine-5-carboxylic acid cyclobutylmethyl-amide]: the Emax is greater than 50%. The molecule also displayed an EC50 under setting [1] of 20 to 300 nM. `Cc1cc(CNC(=O)c2cnc(Nc3cccc(Cl)c3)nc2C(F)(F)F)ccn1` [Example 293, 2-(3-Chloro-phenylamino)-4-trifluoromethyl-pyrimidine-5-carboxylic acid (2-methyl-pyridin-4-ylmethyl)-amide hydrochloride]: the EC50 under setting [1] lay within 20 to 300 nM. Regarding `Cc1cc(Nc2ncc(C(=O)NCC3CCOCC3)c(C(F)(F)F)n2)ccc1Cl` [Example 187, 2-(4-Chloro-3-methylphenylamino)-4-trifluoromethyl-pyrimidine-5-carboxylic acid (tetrahydropyran-4-ylmethyl)-amide], the Emax is greater than 50%. This molecule returned an EC50 under setting [1] of 20 to 300 nM. Under setting [1], `O=C(NCc1ccncc1)c1cnc(Nc2cccc(Cl)c2Cl)nc1C(F)(F)F` [Example 281, 2-(2,3-Dichlorophenylamino)-4-trifluoromethylpyrimidine-5-carboxylic acid (pyridin-4-ylmethyl)amide] had an EC50 of 20 to 300 nM.

Regarding `O=C(c1cnc(Nc2cccc(F)c2)nc1C(F)(F)F)N1CCOCC1` [Example 10, 1-[2-(3-Fluorophenylamino)-4-trifluoromethylpyrimidin-5-yl]-1-morpholin-4-yl-methanone], the Emax is greater than 50%. The molecule further showed an EC50 under setting [1] of 20 to 300 nM. For `O=C(NCC1CCCCC1)c1cnc(Nc2cc(F)cc(C(F)(F)F)c2)nc1C(F)(F)F` [Example 90, 2-(3-Fluoro-5-trifluoromethyl-phenylamino)-4-trifluoromethyl-pyrimidine-5-carboxylic acid cyclohexylmethyl-amide] the same measures were greater than 50% and 300 to 1000 nM.

On to `N#Cc1ccc(CNC(=O)c2cnc(Nc3cc(Cl)cc(Cl)c3)nc2C(F)(F)F)cc1` [Example 291, 2-(3,5-Dichlorophenylamino)-4-trifluoromethylpyrimidine-5-carboxylic acid 4-cyanobenzylamide], for which the EC50 under setting [1] is 20 to 300 nM. As for `O=C(NCC1CCCC1)c1cnc(Nc2cc(Cl)cc(Cl)c2)nc1C(F)(F)F` [Example 45, 2-(3,5-Dichlorophenylamino)-4-trifluoromethylpyrimidine-5-carboxylic acid cyclopentylmethyl-amide], the Emax was greater than 50%. Under setting [1], this molecule showed an EC50 of 20 to 300 nM. For `N#Cc1ccc(Nc2ncc(C(=O)NCc3ccccc3)c(C(F)(F)F)n2)cc1` [Example 292, 2-(4-Cyano-phenylamino)-4-trifluoromethyl-pyrimidine-5-carboxylic acid benzylamide] the same measures were greater than 50% and 20 to 300 nM.
